Values after ≈ are worked out from the molar mass of the structure shown.

In the test the test system is S aureus A798. The experiment in a line: Minimal inhibitory concentration (MIC), microdilution method in cation-adjusted Mueller-Hinton Broth following NCCLS guidelines. The test is classed as cell-based. As to conditions: pH of test medium 7.2-7.3. The method, then:
These assays have been performed following the description given in “Methods for dilution Antimicrobial Susceptibility Tests for Bacteria that Grow Aerobically, 4th ed.; Approved standard: NCCLS Document M7-A4; National Committee for Clinical Laboratory Standards Villanova, Pa., USA, 1997”. Minimal inhibitory concentrations (MICs; mg/l) were determined in cation-adjusted Mueller-Hinton Broth by a microdilution method following NCCLS guidelines (National Committee for Clinical Laboratory Standards. Methods for Dilution Antimicrobial Susceptibility). The pH of the test medium was 7.2-7.3. All Example compounds were tested against several Gram positive and Gram negative bacteria.
(In general: Dilution methods test growth across graded concentrations, often in twofold steps.)
The MIC is the lowest concentration that inhibits growth of the organism. The low end stands for inhibition by little substance, the high end for a need for much substance. Take `COc1ccc2nccc(N3CCC(CNC[C@@H]4CN(c5ccc6c(c5)NC(=O)CS6)C(=O)O4)C3)c2n1` (mixture of isomers) [Example 80, 6-[(R)-5-({[(RS)-1-(6-Methoxy-[1,5]naphthyridin-4-yl)-pyrrolidin-3-ylmethyl]-amino}-methyl)-2-oxo-oxazolidin-3-yl]-4H-benzo[1,4]thiazin-3-one]: the MIC was at most 0.031 µg/mL.

`CCCc1ccc(N2C[C@@H](CN(C)C3CN(c4ccnc5ccc(OC)nc45)C3)OC2=O)cc1` [Example 139, (R)-5-({[1-(6-Methoxy-[1,5]naphthyridin-4-yl)-azetidin-3-yl]-methyl-amino}-methyl)-3-(4-propyl-phenyl)-oxazolidin-2-one]: the MIC is at most 0.031 µg/mL.

Turning to `N#Cc1ccc2nccc(N3CCC(NC[C@@H]4CN(c5ccc6c(c5)NC(=O)CS6)C(=O)O4)CC3)c2c1` [Example 180, 4-(4-{[(R)-2-oxo-3-(3-oxo-3,4-dihydro-2H-benzo[1,4]thiazin-6-yl)-oxazolidin-5-ylmethyl]-amino}-piperidin-1-yl)-quinoline-6-carbonitrile], the MIC is at most 0.031 µg/mL.

In turn, `COc1ccc2nccc(N3CCN(CC4CN(c5ccc(C)cn5)C(=O)O4)CC3)c2n1` (racemic) [Example 43, (RS)-5-[4-(6-Methoxy-[1,5]naphthyridin-4-yl)-piperazin-1-ylmethyl]-3-(5-methyl-pyridin-2-yl)-oxazolidin-2-one] yielded an MIC of 1 µg/mL (≈ 2.3 µM).

The compound `COc1ccc2nccc(N3CC(N(C)C[C@@H]4CN(c5ccc(C)c(C)c5)C(=O)O4)C3)c2n1` [Example 138, (R)-3-(3,4-Dimethyl-phenyl)-5-({[1-(6-methoxy-[1,5]naphthyridin-4-yl)-azetidin-3-yl]-methyl-amino}-methyl)-oxazolidin-2-one] showed an MIC of at most 0.031 µg/mL.

Take `COc1ccc2nccc(N3CC(NC(=O)C[C@@H]4CN(c5ccc6c(c5)NC(=O)CS6)C(=O)O4)C3)c2n1` [Example 115, N-[1-(6-Methoxy-[1,5]naphthyridin-4-yl)-azetidin-3-yl]-2-[(R)-2-oxo-3-(3-oxo-3,4-dihydro-2H-benzo[1,4]thiazin-6-yl)-oxazolidin-5-yl]-acetamide]: inhibition of growth (MIC) required 1 µg/mL (≈ 1.92 µM).

Compound `COc1ccc2nccc(N3CCN(C[C@@H]4CN(c5ccc(F)c(F)c5)C(=O)O4)CC3)c2n1` [Example 29, (R)-3-(3,4-Difluoro-phenyl)-5-[4-(6-methoxy-[1,5]naphthyridin-4-yl)-piperazin-1-ylmethyl]-oxazolidin-2-one] showed an MIC of at most 0.031 µg/mL.

On to `COc1ccc2nccc(N3CCCN(C[C@@H]4CN(c5ccc6c(c5)NC(=O)CO6)C(=O)O4)CC3)c2n1` [Example 105, 6-{(R)-5-[4-(6-Methoxy-[1,5]naphthyridin-4-yl)-[1,4]diazepan-1-ylmethyl]-2-oxo-oxazolidin-3-yl}-4H-benzo[1,4]oxazin-3-one], for which the MIC was at most 0.031 µg/mL.

With `COc1ccc2nccc(N3CC[C@H](NC[C@@H]4CN(c5ccc6c(c5)OCCO6)C(=O)O4)C3)c2n1` [Example 41, (R)-3-(2,3-Dihydro-benzo[1,4]dioxin-6-yl)-5-{[(S)-1-(6-methoxy-[1,5]naphthyridin-4-yl)-pyrrolidin-3-ylamino]-methyl}-oxazolidin-2-one], the MIC is at most 0.031 µg/mL.

Regarding `COc1ccc2nccc(N3CCN(C[C@@H]4CN(c5ccc6ncsc6c5)C(=O)O4)CC3)c2n1` [Example 19, (R)-3-Benzothiazol-6-yl-5-[4-(6-methoxy-[1,5]naphthyridin-4-yl)-piperazin-1-ylmethyl]-oxazolidin-2-one], the MIC is at most 0.031 µg/mL.

Turning to `COc1ccc2ncc(F)c(N3CCCN(C[C@@H]4CN(c5ccc6c(c5)NC(=O)CO6)C(=O)O4)CC3)c2n1` [Example 103, 6-{(R)-5-[4-(3-Fluoro-6-methoxy-[1,5]naphthyridin-4-yl)-[1,4]diazepan-1-ylmethyl]-2-oxo-oxazolidin-3-yl}-4H-benzo[1,4]oxazin-3-one], the MIC is at most 0.031 µg/mL.

For `COc1ccc2nccc(N3CC[C@@H](CNC[C@@H]4CN(c5ccc6c(c5)NC(=O)CS6)C(=O)O4)C3)c2c1` [Example 173, 6-[(R)-5-({[(S)-1-(6-Methoxy-quinolin-4-yl)-pyrrolidin-3-ylmethyl]-amino}-methyl)-2-oxo-oxazolidin-3-yl]-4H-benzo[1,4]thiazin-3-one], the MIC is at most 0.031 µg/mL.

Consider `COc1ccc2nccc(N3CC(CNC[C@@H]4CN(c5ccc6c(c5)NC(=O)CS6)C(=O)O4)C3)c2c1` [Example 186, 6-[(R)-5-({[1-(6-Methoxy-quinolin-4-yl)-azetidin-3-ylmethyl]-amino}-methyl)-2-oxo-oxazolidin-3-yl]-4H-benzo[1,4]thiazin-3-one], for which the MIC is at most 0.031 µg/mL.

The compound `COc1ccc2nccc(N3CC(CNC(=O)[C@@H]4CN(c5ccc(C)c(F)c5)C(=O)O4)C3)c2n1` [Example 130, (S)-3-(3-Fluoro-4-methyl-phenyl)-2-oxo-oxazolidine-5-carboxylic acid [1-(6-methoxy-[1,5]naphthyridin-4-yl)-azetidin-3-ylmethyl]-amide] came in with an MIC of 0.25 µg/mL (≈ 0.537 µM).

`COc1ccc2nccc(N3CC(NC[C@@H]4CN(c5ccc(C)c(F)c5)C(=O)O4)C3)c2n1` [Example 50, (R)-3-(3-Fluoro-4-methyl-phenyl)-5-{[1-(6-methoxy-[1,5]naphthyridin-4-yl)-azetidin-3-ylamino]-methyl}-oxazolidin-2-one] registered an MIC of at most 0.031 µg/mL.

In turn, `N#Cc1ccc2nccc(N3CC[C@@H](NC[C@@H]4CN(c5ccc6c(c5)NC(=O)CS6)C(=O)O4)C3)c2c1` [Example 178, 4-((R)-3-{[(R)-2-oxo-3-(3-oxo-3,4-dihydro-2H-benzo[1,4]thiazin-6-yl)-oxazolidin-5-ylmethyl]-amino}-pyrrolidin-1-yl)-quinoline-6-carbonitrile] yielded an MIC of 0.063 µg/mL (≈ 0.126 µM).

For the compound `COc1ccc2ncnc(N3CCC(O)(CC4CN(c5ccc6c(c5)OCCO6)C(=O)O4)CC3)c2c1` (racemic) [Example 4, (RS)-3-(2,3-Dihydro-benzo[1,4]dioxin-6-yl)-5-[4-hydroxy-1-(6-methoxy-quinazolin-4-yl)-piperidin-4-ylmethyl]-oxazolidin-2-one], the MIC was at most 0.031 µg/mL.

`COc1ccc2nccc(N3CCN(C[C@@H]4CN(c5cccc(C#N)c5)C(=O)O4)CC3)c2n1` [Example 21, 3-{(R)-5-[4-(6-Methoxy-[1,5]naphthyridin-4-yl)-piperazin-1-ylmethyl]-2-oxo-oxazolidin-3-yl}-benzonitrile] had an MIC of 0.25 µg/mL (≈ 0.562 µM).

Turning to `CCc1ccc(N2C[C@@H](CN3CCN(c4ccnc5ccc(OC)nc45)CC3)OC2=O)cc1` [Example 26, (R)-3-(4-Ethyl-phenyl)-5-[4-(6-methoxy-[1,5]naphthyridin-4-yl)-piperazin-1-ylmethyl]-oxazolidin-2-one], the MIC is at most 0.031 µg/mL.

`COc1ccc2nccc(N3CC[C@@H](NC[C@@H]4CN(c5ccc6c(c5)OCCO6)C(=O)O4)C3)c2n1` [Example 42, (R)-3-(2,3-Dihydro-benzo[1,4]dioxin-6-yl)-5-{[(R)-1-(6-methoxy-[1,5]naphthyridin-4-yl)-pyrrolidin-3-ylamino]-methyl}-oxazolidin-2-one] had an MIC of at most 0.031 µg/mL.

`CCOc1ccc(N2C[C@@H](CN[C@H]3CCN(c4c(F)cnc5ccc(OC)nc45)C3)OC2=O)cc1` [Example 170, (R)-3-(4-Ethoxy-phenyl)-5-{[(S)-1-(3-fluoro-6-methoxy-[1,5]naphthyridin-4-yl)-pyrrolidin-3-ylamino]-methyl}-oxazolidin-2-one] registered an MIC of 0.25 µg/mL (≈ 0.519 µM).

In the case of `COc1ccc2nccc(N3CCCC(NC[C@@H]4CN(c5ccc6c(c5)OCCO6)C(=O)O4)C3)c2n1` (mixture of isomers) [Example 102, (R)-3-(2,3-Dihydro-benzo[1,4]dioxin-6-yl)-5-{[(RS)-1-(6-methoxy-[1,5]naphthyridin-4-yl)-piperidin-3-ylamino]-methyl}-oxazolidin-2-one], 4 µg/mL was the least that counted as inhibitory (MIC).

Take `COc1ccc2ncc(F)c(N3CCC(NC[C@@H]4CN(c5ccc6c(c5)NC(=O)CS6)C(=O)O4)CC3)c2n1` [Example 122, 6-((R)-5-{[1-(3-Fluoro-6-methoxy-[1,5]naphthyridin-4-yl)-piperidin-4-ylamino]-methyl}-2-oxo-oxazolidin-3-yl)-4H-benzo[1,4]thiazin-3-one]: the MIC was at most 0.031 µg/mL.

`O=C1CSc2ccc(N3C[C@@H](CNC4CCN(c5ccnc6ccc(F)cc56)CC4)OC3=O)cc2N1` [Example 179, 6-((R)-5-{[1-(6-Fluoro-quinolin-4-yl)-piperidin-4-ylamino]-methyl}-2-oxo-oxazolidin-3-yl)-4H-benzo[1,4]thiazin-3-one]: the MIC was at most 0.031 µg/mL.

As to `COc1ccc2nccc(N3C[C@H]4CCN(C[C@@H]5CN(c6ccc7c(c6)OCCO7)C(=O)O5)[C@H]4C3)c2n1` (mixture of isomers) [Example 94, (R)-3-(2,3-Dihydro-benzo[1,4]dioxin-6-yl)-5-{[(3aR*,6aR*)-5-(6-methoxy-[1,5]naphthyridin-4-yl)-hexahydro-pyrrolo[3,4-b]pyrrol-1-yl]-methyl}-oxazolidin-2-one], the lowest concentration to inhibit growth (MIC) was 2 µg/mL.

For `COc1ccc2nccc(N3CCN(C[C@H]4CN(c5ccc(C)c(F)c5)C(=O)O4)CC3)c2n1` [Example 38, (S)-3-(3-Fluoro-4-methyl-phenyl)-5-[4-(6-methoxy-[1,5]naphthyridin-4-yl)-piperazin-1-ylmethyl]-oxazolidin-2-one], the MIC was determined as 0.063 µg/mL (≈ 0.14 µM).

Compound `COc1cnc2cccc(N3CC(NC[C@@H]4CN(c5ccc6c(c5)NC(=O)CS6)C(=O)O4)C3)c2c1` [Example 157, 6-((R)-5-{[1-(3-Methoxy-quinolin-5-yl)-azetidin-3-ylamino]-methyl}-2-oxo-oxazolidin-3-yl)-4H-benzo[1,4]thiazin-3-one] yielded an MIC of at most 0.031 µg/mL.

Turning to `COc1ccc2ncnc(N3CC(NC[C@@H]4CN(c5ccc6c(c5)NC(=O)CO6)C(=O)O4)C3)c2c1` [Example 54, 6-((R)-5-{[1-(6-Methoxy-quinazolin-4-yl)-azetidin-3-ylamino]-methyl}-2-oxo-oxazolidin-3-yl)-4H-benzo[1,4]oxazin-3-one], the MIC was at most 0.031 µg/mL.

Source of the values: patent US8217029B2, “Oxazolidinone antibiotics” (Actelion Pharmaceuticals Ltd, priority 2007, dated 2012).
